Laboratory results published in US20090294381A1, “METHODS FOR CONTROLLING PH IN WATER SANITIZED BY CHEMICAL OR ELECTROLYTIC CHLORINATION” (ZODIAC POOL CARE, INC., priority 2005, published 2009).
Where two headings read alike, the source gives them in different places.

How the values were obtained:
[1] = cited from earlier work
Chlorella vulgaris = assay: Algae growth in nutrient medium, serial dilution tubes, visual bottom pellicle formation; assay type: cell-based; set-up: key: +++ indicates good growth; ++ indicates scant growth; + indicates very low growth; − indicates no growth
Procedure: An algae nutrient medium was prepared by mixing the following with 940 mL deionized (DI) water:
Primary stocks were made by including each of the test compounds in the table below in DI as 100 mL aliquots of 1000 ppm solutions. Working stocks in algae media were made as 128 ppm solutions (13 mL/100 mL DI). These solutions were serially diluted and placed into disposable borosilicate tubes, each containing 5 mL of algae medium. The highest theoretical concentration of each compound tested was 64 ppm; as a result of the serial dilution, concentrations of 32, 16, 8, 4, 2, 1, 0.5, and 0.25 ppm were tested. Each tube as inoculated with 50 μL of 10-12 day old Chlorella vulgaris, having an approximate density of 3.0×10^5 cells/mL. Growth was evaluated in a semi-quantitative fashion by visually observing bottom pellicle formation, which was compared to 2 controls. In the table below, +++ indicates good growth, ++ indicates scant growth, + indicates very low growth, and − indicates no growth.

[2] = Phosphate removal and turbidity in 250 gallon mini-pool
Procedure: A 250 gallon mini-pool was filled with tap water and balanced with calcium chloride, sodium bicarbonate, sodium bisulfate, and sodium hypochlorite. Sufficient sodium phosphate was added to the pool to give a phosphate concentration of approximately 1.0 ppm (calculated as ortho-phosphate). While mixing, lanthanum chloride was added to the water, where it combined with the phosphate and caused formation of a precipitate. The amount of lanthanum chloride added was sufficient to reduce phosphate concentration to less than 100 ppb. The water was allowed to mix (via stirring) for 15 minutes. […] Samples were taken at intervals during the study, and analyzed for turbidity, phosphate level, and lanthanum level, and in some cases, for pH and total alkalinity. […]
A 250 gallon mini-pool was filled with tap water and balanced with calcium chloride, sodium bicarbonate, sodium bisulfate, and sodium hypochlorite. Sufficient sodium phosphate was added to the pool to give a phosphate concentration of approximately 1.0 ppm (calculated as ortho-phosphate). […] Samples were taken at intervals during the study, and analyzed for turbidity, phosphate level, and zinc level, and in some cases, for pH and total alkalinity. […]

[3] = Phosphate removal in full sized swimming pools via Nature2 G cartridge; conditions: Example 6: 7 pools, 15,000 to 27,000 gallons, about 1.0 ppm phosphate, 900 grams per cartridge
Description: Sufficient sodium phosphate was broadcast to water in 7 full sized swimming pools, ranging in size from 15,000 to 27,000 gallons, to give a phosphate concentration of about 1.0 ppm (calculated as ortho-phosphate). The pools were allowed to mix for at least one hour. A Nature^2 G sized cartridge containing 900 grams of lanthanum chloride was connected to each pool water circulation system, and pumping through the cartridge was initiated, delivering lanthanum to the water. Water samples were taken at intervals and analyzed to determine turbidity, phosphate levels, and lanthanum levels, and in some cases, pH and total alkalinity. Six of the pools had surface cleaners in constant use and the remaining pool used a pool service. Each of the pools was filtered using a pleated cartridge filter. Turbidity of 6 of the 7 pools returned to starting levels (before lanthanum was added to precipitate out the phosphate) after 48 hours. A minimum of 90% of phosphate was removed from each of the pools.

[OH][Al]([OH])[OH] [Al(OH)3]
log Ksp ([1]; metal hydroxides): −32.7

O=P([O-])([O-])[O-].[Al+3] [AlPO4]
log Ksp ([1]; metal phosphates): −20.0

[Ce+3].[OH-].[OH-].[OH-] [Ce(OH)3]
log Ksp ([1]; metal hydroxides): −22.3

[Ce+4].[OH-].[OH-].[OH-].[OH-] [Ce(OH)4]
log Ksp ([1]; metal hydroxides): −47.7

O=P([O-])([O-])[O-].[Ce+3] [CePO4]
log Ksp ([1]; metal phosphates): −26.2

O=P([O-])([O-])[O-].O=P([O-])([O-])[O-].[Cu+2].[Cu+2].[Cu+2] [Cu3(PO4)2]
log Ksp ([1]; metal phosphates): −36.9

[Cu+2].[OH-].[OH-] [Cu(OH)2]
log Ksp ([1]; metal hydroxides): −19.3

O=S(=O)([O-])[O-].[Cu+2] [CuSO4]
Growth of Chlorella vulgaris (bottom pellicle formation) (Chlorella vulgaris; 0.25 ppm test compound): ++
Growth of Chlorella vulgaris (bottom pellicle formation) (Chlorella vulgaris; 0.5 ppm test compound): ++
Growth of Chlorella vulgaris (bottom pellicle formation) (Chlorella vulgaris; 1 ppm test compound): +
Growth of Chlorella vulgaris (bottom pellicle formation) (Chlorella vulgaris; 2 ppm test compound): −
Growth of Chlorella vulgaris (bottom pellicle formation) (Chlorella vulgaris; 4 ppm test compound): −
Growth of Chlorella vulgaris (bottom pellicle formation) (Chlorella vulgaris; 8 ppm test compound): −
Growth of Chlorella vulgaris (bottom pellicle formation) (Chlorella vulgaris; 16 ppm test compound): −
Growth of Chlorella vulgaris (bottom pellicle formation) (Chlorella vulgaris; 32 ppm test compound): −
Growth of Chlorella vulgaris (bottom pellicle formation) (Chlorella vulgaris; 64 ppm test compound): −

CCCCCCCCCCCCN.Cl [Dodecylamine HCl]
Growth of Chlorella vulgaris (bottom pellicle formation) (Chlorella vulgaris; 0.25 ppm test compound): −
Growth of Chlorella vulgaris (bottom pellicle formation) (Chlorella vulgaris; 0.5 ppm test compound): −
Growth of Chlorella vulgaris (bottom pellicle formation) (Chlorella vulgaris; 1 ppm test compound): −
Growth of Chlorella vulgaris (bottom pellicle formation) (Chlorella vulgaris; 2 ppm test compound): −
Growth of Chlorella vulgaris (bottom pellicle formation) (Chlorella vulgaris; 4 ppm test compound): −
Growth of Chlorella vulgaris (bottom pellicle formation) (Chlorella vulgaris; 8 ppm test compound): −
Growth of Chlorella vulgaris (bottom pellicle formation) (Chlorella vulgaris; 16 ppm test compound): −
Growth of Chlorella vulgaris (bottom pellicle formation) (Chlorella vulgaris; 32 ppm test compound): −
Growth of Chlorella vulgaris (bottom pellicle formation) (Chlorella vulgaris; 64 ppm test compound): −

[La+3].[OH-].[OH-].[OH-] [La(OH)3]
log Ksp ([1]; metal hydroxides): −18.5

O=P([O-])([O-])[O-].[La+3] [LaPO4]
log Ksp ([1]; metal phosphates): −25.7

[OH][Sn][OH] [Sn(OH)2]
log Ksp ([1]; metal hydroxides): −26.5

O=P([O-])([O-])[O-].O=P([O-])([O-])[O-].[Zn+2].[Zn+2].[Zn+2] [Zn3(PO4)2]
log Ksp ([1]; metal phosphates): −35.3

[OH-].[OH-].[Zn+2] [Zn(OH)2]
log Ksp ([1]; metal hydroxides): −16.5

[Cl][La]([Cl])[Cl] [lanthanum chloride]
Turbidity reduction ([2]; Example 5: within two hours of beginning filtration (diatomaceous earth)): 97%
phosphate removed [3]: ≥ 90%

[Cl-].[Cl-].[Zn+2] [zinc chloride]
phosphate reduction ([2]; Example 7: start approx. 1.0 ppm phosphate, within 3 hours, sand filtration): more than 90%

Zinc borate
Growth of Chlorella vulgaris (bottom pellicle formation) (Chlorella vulgaris; 0.25 ppm test compound): +
Growth of Chlorella vulgaris (bottom pellicle formation) (Chlorella vulgaris; 0.5 ppm test compound): +
Growth of Chlorella vulgaris (bottom pellicle formation) (Chlorella vulgaris; 1 ppm test compound): −
Growth of Chlorella vulgaris (bottom pellicle formation) (Chlorella vulgaris; 2 ppm test compound): −
Growth of Chlorella vulgaris (bottom pellicle formation) (Chlorella vulgaris; 4 ppm test compound): −
Growth of Chlorella vulgaris (bottom pellicle formation) (Chlorella vulgaris; 8 ppm test compound): −
Growth of Chlorella vulgaris (bottom pellicle formation) (Chlorella vulgaris; 16 ppm test compound): −
Growth of Chlorella vulgaris (bottom pellicle formation) (Chlorella vulgaris; 32 ppm test compound): −
Growth of Chlorella vulgaris (bottom pellicle formation) (Chlorella vulgaris; 64 ppm test compound): −
